Activity calls are given as the source filed them. The rule behind the calls is not given here.
How the values were obtained:
HT-29 = experiment: Cytotoxicity against human HT-29 cells assessed as growth inhibition after 72 hrs by MTT assay; format: functional, cell-based; details: HT-29, 72 h
[1] = Selectivity index, ratio of IC50 for HEK293 cells to IC50 for human HT-29 cells; format: functional
HEK293 = experiment: Cytotoxicity against HEK293 cells assessed as growth inhibition after 72 hrs by MTT assay; format: cell-based; details: Homo sapiens, HEK293, 72 h
[2] = Selectivity index, ratio of IC50 for HEK293 cells to IC50 for human MCF7 cells; format: functional
MCF7 = experiment: Cytotoxicity against human MCF7 cells assessed as growth inhibition after 72 hrs by MTT assay; format: functional, cell-based; details: MCF7, 72 h
A549 [3] = experiment: Induction of microtubule depolymerization in human A549 cells at 100 nM after 4 hrs by immunofluorescence microscopic method; format: cell-based
A549 [4] = experiment: Cell cycle arrest in human A549 cells assessed as accumulation at G2/M phase at IC50 after 24 hrs by propidium iodide staining-based flow cytometric method; format: functional
A549 [5] = experiment: Cytotoxicity against human A549 cells assessed as growth inhibition after 72 hrs by MTT assay; format: functional, cell-based; details: A549, 72 h
Ovis aries [6] = species on record: Ovis aries; experiment: Induction of abnormal lamb brain tubulin polymer formation at 50 uM after 10 mins by turbidimetry
[7] = Selectivity index, ratio of IC50 for HEK293 cells to IC50 for human A549 cells; format: functional
[8] = Inhibition of lamb brain tubulin self assembly assessed as decrease in microtubule formation after 10 mins by turbidimetry/spectrometry; design: species or system Ovis aries
Ovis aries [9] = species on record: Ovis aries; experiment: Binding affinity to lamb brain tubulin after 15 mins by fluorimetric titration method
Ovis aries [10] = species on record: Ovis aries; experiment: Induction of abnormal lamb brain tubulin polymer formation at 50 uM by uranyl acetate staining-based transmission electron microscopy
Ovis aries [11] = species on record: Ovis aries; experiment: Induction of abnormal lamb brain tubulin polymer formation at 10 uM after 10 mins by turbidimetry
Ovis aries [12] = species on record: Ovis aries; experiment: Inhibition of lamb brain tubulin self assembly assessed as decrease in microtubule formation at 10 uM after 10 mins by turbidimetry/spectrometry
Ovis aries [13] = species on record: Ovis aries; experiment: Binding affinity to lamb brain tubulin at 10 uM by fluorimetric titration method
Ovis aries [14] = species on record: Ovis aries; experiment: Binding affinity to lamb brain tubulin-colchicine complex at 20 uM by fluorimetric titration method
Ovis aries [15] = species on record: Ovis aries; experiment: Inhibition of lamb brain tubulin self assembly assessed as decrease in microtubule formation at 0.1 uM by uranyl acetate staining-based transmission electron microscopy

SMILES	IC50 (HT-29)	Ratio IC50 [1]	IC50 (HEK293)	Ratio IC50 [2]	IC50 (MCF7)	Activity (A549 [3])	Activity (A549 [4])	IC50 (A549 [5])	Activity (Ovis aries [6])	Ratio IC50 [7]	IC50 [8]	Kapp (Ovis aries [9])	Activity (Ovis aries [10])	Activity (Ovis aries [11])	inhibition (Ovis aries [12])	Activity (Ovis aries [13])	Activity (Ovis aries [14])	inhibition (Ovis aries [15])
CCCC(=O)N[C@H]1CCc2cc(OC)c(OC)c(OC)c2-c2ccc(OC)c(=O)cc21	10 nM	1.4	13.5 nM	1	13 nM	–	–	–	–	–	–	–	–	–	–	–	–	–
COc1cc2c(c(OC)c1OC)-c1ccc(OC)c(=O)cc1[C@@H](NC(C)=O)CC2 [COLCHICINE]	–	–	–	–	–	Active	8%	14 nM	–	–	–	–	–	–	–	–	–	–
CCCCCCCCCCCCCC(=O)N[C@H]1CCc2cc(OC)c(OC)c(OC)c2-c2ccc(OC)c(=O)cc21	36 nM	1.3	46 nM	2.3	20 nM	–	–	–	–	–	–	–	–	–	–	–	–	–
CCCCCCCCCCCCCCCC(=O)N[C@H]1CCc2cc(OC)c(OC)c(OC)c2-c2ccc(OC)c(=O)cc21	184 nM	1.3	244 nM	0.3	720 nM	–	–	–	–	–	–	–	–	–	–	–	–	–
CCCCCCCCCCCC(=O)N[C@H]1CCc2cc(OC)c(OC)c(OC)c2-c2ccc(OC)c(=O)cc21	0.27 nM	0.9	0.23 nM	0.4	0.53 nM	–	–	71.9 nM	Active	<0.1	1210 nM	19 ×10⁴ /M	Active	Active	–	–	–	–
CCCCCC(=O)N[C@H]1CCc2cc(OC)c(OC)c(OC)c2-c2ccc(OC)c(=O)cc21	3.37 nM	2.1	7.1 nM	1	7.02 nM	Active	–	18 nM	Active	0.39	2060 nM	6.4 ×10⁴ /M	–	–	Active	–	–	–
CCCCCCCCCCC(=O)N[C@H]1CCc2cc(OC)c(OC)c(OC)c2-c2ccc(OC)c(=O)cc21	0.041 nM	4.2	0.17 nM	0.1	1.77 nM	–	41%	62 nM	Active	<0.1	790 nM	18.4 ×10⁴ /M	–	Active	–	–	–	–
CCCCCCCC(=O)N[C@H]1CCc2cc(OC)c(OC)c(OC)c2-c2ccc(OC)c(=O)cc21	1.69 nM	11.2	18.9 nM	0.8	23 nM	–	–	133 nM	Active	0.14	1080 nM	5.2 ×10⁴ /M	Active	–	80%	–	–	–
CCCCCCCCCC(=O)N[C@H]1CCc2cc(OC)c(OC)c(OC)c2-c2ccc(OC)c(=O)cc21	0.143 nM	1.7	0.242 nM	<0.1	29 nM	Active	–	25 nM	Active	<0.1	700 nM	17.9 ×10⁴ /M	–	Active	–	Active	inactive	Active
CCCCCCCCCCCCCCCCCC(=O)N[C@H]1CCc2cc(OC)c(OC)c(OC)c2-c2ccc(OC)c(=O)cc21	1010 nM	0.8	766 nM	6.4	120 nM	–	–	–	–	–	–	–	–	–	–	–	–	–
CCCCCCCCCCCCC(=O)N[C@H]1CCc2cc(OC)c(OC)c(OC)c2-c2ccc(OC)c(=O)cc21	7 nM	0.2	1.5 nM	0.2	6.8 nM	–	–	–	–	–	–	–	–	–	–	–	–	–
